Test results: ChEMBL document CHEMBL5096159, “Annual review of LSD1/KDM1A inhibitors in 2020” (Eur J Med Chem, 2021)

Assays:
[1] = test system: MDA-MB-231; experiment: Antiproliferative activity against human MDA-MB-231 cells assessed as reduction in cell viability after 24 hrs by MTT assay; type: functional, cell-based; conditions: MDA-MB-231, 24 h
[2] = target: T1, Lysine-specific histone demethylase 1A (Homo sapiens, UniProt O60341); experiment: Inhibition of LSD1 (unknown origin) by Spectra Max Paradigm Microplate Reader analysis
[3] = target: T1, Lysine-specific histone demethylase 1A; experiment: Inhibition of recombinant LSD1 (unknown origin) expressed in Escherichia coli BL21 using H3K4me2 as substrate preincubated for 10 mins followed by substrate addition and measured after 30 mins by fluorescence based analysis
[4] = target: T1, Lysine-specific histone demethylase 1A; experiment: Inhibition of recombinant LSD1 (unknown origin) using H3K4me2 as a substrate measured after 0.5 hrs by fluorescence based analysis
[5] = Cytotoxicity against human GES1 cells assessed as cell viability measured after 72 hrs by MTT assay; type: toxicity, cell-based
[6] = test system: MGC-803; experiment: Antiproliferative activity against human MGC-803 cells assessed as reduction in cell viability after 72 hrs by MTT assay; type: functional, cell-based; conditions: MGC-803, 72 h
[7] = test system: BGC-823; experiment: Antiproliferative activity against human BGC-823 cells assessed as reduction in cell viability incubated for 5 days by MTS assay; type: functional, cell-based; conditions: BGC-823, 120 h

Row | Structure (SMILES) | IC50 [2] | IC50 [3] | other results
1 | O=C(/C=C/c1ccc(O)c2c1[C@H](C(=O)O[C@H](Cc1ccc(O)c(O)c1)C(=O)O)[C@@H](c1ccc(O)c(O)c1)O2)O[C@H](Cc1ccc(O)c(O)c1)C(=O)O | 0.11 µM |  | IC50 [1]: 55 µM
2 | COc1ccc2cc3[n+](cc2c1OC)CCc1cc2c(cc1-3)OCO2 [BERBERINE] |  | 6.97 µM | 
3 | COc1ccc(-c2coc3cc(O)cc(O)c3c2=O)cc1 [BIOCHANIN] |  |  | IC50 [4]: 2.95 µM; IC50 at 72 h [5]: > 32 µM; IC50 [6]: 6.77 µM
4 | COc1cc(CNC(=O)CCCC/C=C/C(C)C)ccc1O [CAPSAICIN] |  |  | IC50 [7]: 4.66 µM
5 | COc1cc2c(cc1O)-c1cc3ccc(OC)c(OC)c3c[n+]1CC2 [COLUMBAMINE] |  | 0.47 µM | 
6 | C[C@H]1COC2=C1C(=O)C(=O)c1c2ccc2c1CCCC2(C)C [CRYPTOTANSHINONE] | 9.02 µM |  | 
7 | Cc1cccc2c3c(ccc12)C1=C(C(=O)C3=O)[C@@H](C)CO1 [DIHYDROTANSHINONE I] | 15.8 µM |  | 
8 | COc1cc2c(cc1O)CC[n+]1cc3c(OC)c(OC)ccc3cc1-2 [JATRORRHIZINE] |  | 1.55 µM | 
9 | COc1cc2c(cc1OC)-c1cc3ccc(OC)c(OC)c3c[n+]1CC2 [PALMITINE] |  | 12.2 µM | 
10 | O=C(/C=C/c1ccc(O)c(O)c1)O[C@H](Cc1ccc(O)c(O)c1)C(=O)O [ROSMARINIC ACID] | 20.9 µM |  | 
11 | Cc1coc2c1C(=O)C(=O)c1c-2ccc2c(C)cccc12 [TANSHINONE I] | 16.4 µM |  | 
